# Laboratory results reported in patent US12389905B2, “Synergistic mixture of plant defense inductors” (LIDA PLANT RESEARCH S.L., priority 2018, dated 2025).
# Where “and” joins values, the source holds several entries; their conditions need not be identical. Identical values can stand only once. Like-named read-outs stand apart in the source and are kept apart here.
# How the values were obtained:
# Assay type in all cases: in vivo
# [1] = system: PDF1.2 (PLANT DEFENSIN 1.2) gene; test: PDF1.2 gene expression (qPCR) in sprayed Arabidopsis thaliana plants
# Experimental: Wild-type Arabidopsis thaliana Col-0 seeds were grown in pots under a 16 hours day/8 hours night (long day) photoperiod, with a daytime temperature of 22° C., a night temperature of 20° C., and a relative humidity of 65%. Plants were sprayed with each inductor dissolved in water (inductors alone or in combination). 24 and 48 hours after treatment (hours post treatment, hpt), tissue samples were harvested and gene expression analysis of specific defense marker genes was performed, through quantitative PCR technology (qPCR).
# The genes involved in plant defense analyzed were one or more of the following 5: • PR1 (PATHOGENESIS-RELATED PROTEIN 1). AGI code: AT2G14610 • PDF1.2 (PLANT DEFENSIN 1.2). AGI code: AT5G44420 • PR2 (PATHOGENESIS-RELATED PROTEIN 2; BETA-1,3-GLUCANASE 2). AGI code: AT3G57260 • PR5 (PATHOGENESIS-RELATED GENE 5). AGI code: AT1G75040 • ICS1 (ISO[…] 1). AGI code: AT1G74710
# UBC21 (UBIQUITIN-CONJUGATING ENZYME 21; AGI code: AT5G25760) was the normalization (or housekeeping) gene used.
# PR1 (Salicylic acid-signaling pathway marker gene) and PDF1.2 (Jasmonic acid-signaling pathway marker gene) are important marker genes of plant defense system, because they are necessary to plant defense mechanisms activation.
# In order to evaluate if there is a synergistic effect between different possible combinations, Limpel/Colby's formula was used. This formula is used to calculated the expected activity of combinations containing two active ingredients, A and B: Expected (E)=A+B−(A×B/100) Wherein, • A=observed gene activation of active component A at the same concentration as used in the mixture • B=observed gene activation of active component B at the same concentration as used in the mixture
# When the activity found experimentally (observed) is greater than the value of E, said activity should be considered as being a synergistic effect, and Synergy Factor (F) is >1: Synergy Factor (F)=Observed activity/Expected activity (E)
# In the following: • OV: Observed gene activation value • CEV: Colby expected gene activation value with the mixture [CEV=A+B−(A×B/100)] Synergy Factor (F)=OV(A+B)/CEV(A+B) • hpt: hours post treatment.
# [2] = system: PR1 (PATHOGENESIS-RELATED PROTEIN 1) gene; test: PR1 gene expression (qPCR) in sprayed Arabidopsis thaliana plants
# [3] = system: Pseudomonas cannbina pv. alisalensis on Chinese cabbage
# [4] = system: Pyricularia oryzae on rice; details: soil drench
# [5] = system: Colletotrichum orbiculare on cucumber; test: Anthracnose on cucumber, greenhouse disease control; details: spray; 100 ppm
# [6] = system: Pseudomonas syringae pv. Lachrymans on cucumber; test: Bacterial spot on cucumber, greenhouse disease control; details: spray, 100 ppm
# Experimental: (§1) The experiments were carried out under controlled greenhouse conditions. The effects of temperature, humidity and light conditions in the greenhouse chambers were adjusted according to host plants and pathogens needs.
# (§2) The efficacy or disease control value (W) was calculated according to Abbott's formula: W=(1−x/y)×100 wherein • x=percentage of fungal or bacterial infection in treated plants • y=percentage of fungal or bacterial infection in untreated control plants
# (§3) An efficacy of 0 means the infection level of the treated plants corresponds to that of the untreated control plants; and efficacy of 100 means that the treated plants are not infected.
# (§4) In order to evaluate if there is a synergistic effect between different possible combinations, Limpel/Colby's formula was used.
# (§5) Synergy Factor (F)=OV(A+B)/CEV(A+B) 1. Podosphaera xanthii on Cucumber
# 1.2-leaf stage cucumber plants (cv. Suzunari-suyo), grown in pots under controlled conditions, were treated by spraying of the leaves with the mixture in question, dispersed in an aqueous solution. After 2 days, plants were inoculated and infected with an aqueous suspension of Pseudomonas syringae pv. Lachrymans (1×10^8 cfu/ml), and they were kept in a growth chamber at 25° C. and 90% RH. 7 days after pathogen inoculation, infection levels were assessed and percentages of disease control and expected values were calculated according to Abbott's and Colby's formulas, respectively.
# [7] = system: Phakopsora pachyrhizi on soybean; test: Asian rust on soybean, greenhouse disease control; details: B alone 100 ppm, leaf spray
# Experimental: as §1, §2, §3
# In order to evaluate if there is a synergistic effect between different possible combinations, Limpel/Colby's formula was used. This formula is used to calculated the expected disease control value of combinations containing two active ingredients, A and B: Expected (E)=A+B−(A×B/100) wherein, • A=observed disease control value of component A, at the same concentration as used in the mixture • B=observed disease control value of component B, at the same concentration as used in the mixture
# When the disease control value found experimentally (observed) with the combination is greater than the value of E, said activity should be considered as being a synergistic effect, and Synergy Factor (F) is >1: Synergy Factor (F)=Observed disease control value/Expected disease control value (E)
# As above, in the following Tables: • OV: Observed control value • CEV: Colby expected control value with the mixture [CEV=A+B−(A×B/100)] Synergy Factor (F)=OV(A+B)/CEV(A+B) 1. Podosphaera xanthii on Cucumber
# 1.5-leaf stage soybean plants (cv. Tsurunoko-daizu), grown in pots under controlled conditions, were treated by spraying of the leaves with the mixture in question, dispersed in an aqueous solution. After 7 days, plants were inoculated and infected with a spore suspension of Phakopsora pachyrhizi(1×10^6 uredospores/ml), and they were kept in a growth chamber at 25° C. and 90% RH. 10 days after pathogen inoculation, infection levels were assessed and percentages of disease control and expected values were calculated according to Abbott's and Colby's formulas, respectively.
# [8] = system: Podosphaera xanthii on cucumber; test: Powdery mildew on cucumber, greenhouse disease control
# Experimental: as §1, §2, §3, §4, §5
# 1.2-leaf stage cucumber plants (cv. Suzunari-suyo), grown in pots under controlled conditions, were treated by spraying of the leaves or by soil drenching with the mixture in question, dispersed in an aqueous solution. Plants were kept in a growth chamber at 25° C. and 80% RH. After 7 days, plants were inoculated and infected with a spore suspension of Podosphaera xanthii, and, 10 days after pathogen inoculation, infection levels were assessed and percentages of disease control and expected values were calculated according to Abbott's and Colby's formulas, respectively.
# [9] = Combinations with Chitooligosaccharides
# [10] = Test 3 (soil drench treatment), 100 ppm
# [11] = Test 4 (spray treatment), 100 ppm
molecule,measurement,setting,value
"O=C(O)c1ccccc1O [Salicylic acid, salicylic acid]",PDF1.2 gene activation OV A or B (single component),"[1]; 100 ppm, 24 hpt",12.69 n-fold
same,PDF1.2 gene activation OV A or B (single component),"[1]; 100 ppm, 48 hpt",7.80 n-fold
same,PR1 gene activation OV A or B (single component),"[2]; 100 ppm, 24 hpt",87.08 n-fold
same,PR1 gene activation OV A or B (single component),"[2]; 100 ppm, 48 hpt",58.77 n-fold
"CC/C=C\CC1C(=O)CCC1CC(=O)OC (centres unmarked) [Methyl jasmonate, methyl jasmonate]",PDF1.2 gene activation OV A or B (single component),"[1]; 600 ppm, 24 hpt",6.93 n-fold
same,PR1 gene activation OV A or B (single component),"[2]; 600 ppm, 24 hpt",1.10 n-fold
same,PR1 gene activation OV A or B (single component),"[2]; 600 ppm, 48 hpt",36.36 n-fold
"O=C(O)c1cc(Cl)nc(Cl)c1 [2,6-Dichloroisonicotinic acid, 2,6-dichloro-isonicotinic acid]",PDF1.2 gene activation OV A or B (single component),"[1]; 75 ppm, 24 hpt",5.13 n-fold
same,PDF1.2 gene activation OV A or B (single component),"[1]; 75 ppm, 48 hpt",1.68 n-fold
same,Percentage of disease control OV A or B (single component),[3]; 300 ppm,83%
same,Percentage of disease control B,[3]; in vivo,83%
same,PR1 gene activation OV A or B (single component),"[2]; 75 ppm, 24 hpt",15.45 n-fold
same,PR1 gene activation OV A or B (single component),"[2]; 75 ppm, 48 hpt",26.64 n-fold
"CSC(=O)c1cccc2nnsc12 [Acibenzolar-S-methyl, acibenzolar-S-methyl]",Percentage of disease control B,"[4]; Test 2, B alone 4 ppm",29%
same,Percentage of disease control B,"[4]; Test 2, B alone 10 ppm",49%
same,Percentage of disease control B,"[4]; Test 2, B alone 20 ppm",87%
same,Percentage of disease control B,"[4]; Test 2, B alone 40 ppm",83%
same,Percentage of disease control B,"[4]; Test 2, B alone 100 ppm",70%
same,Percentage of disease control B,"[4]; Test 3, B alone 100 ppm",71%
same,Percentage of disease control B,"[4]; Test 4, B alone 100 ppm",71%
same,Percentage of disease control OV A or B (single component),[5],92%
same,Percentage of disease control B,"[3]; Combinations with Carrageenan, Test 1, B alone 100 ppm, leaf spray",85%
same,Percentage of disease control B,"[3]; Combinations with Chitooligosaccharides, Test 2, B alone 4 ppm, leaf spray",5%
same,Percentage of disease control B,"[3]; Combinations with Chitooligosaccharides, Test 2, B alone 10 ppm, leaf spray",18%
same,Percentage of disease control B,"[3]; Combinations with Chitooligosaccharides, Test 2, B alone 20 ppm, leaf spray",12%
same,Percentage of disease control B,"[3]; Combinations with Chitooligosaccharides, Test 2, B alone 40 ppm, leaf spray",84%
same,Percentage of disease control B,"[3]; Combinations with Chitooligosaccharides, Test 2, B alone 100 ppm, leaf spray",89%
same,Percentage of disease control B,"[3]; Combinations with Chitooligosaccharides, Test 3, B alone 10 ppm, leaf spray",35%
same,Percentage of disease control B,"[3]; Combinations with Chitooligosaccharides, Test 3, B alone 20 ppm, leaf spray",17%
same,Percentage of disease control B,"[3]; Combinations with Chitooligosaccharides, Test 3, B alone 40 ppm, leaf spray",95%
same,Percentage of disease control B,"[3]; Combinations with Chitooligosaccharides, Test 3, B alone 100 ppm, leaf spray",98%
same,PR1 gene activation OV A or B (single component),"[2]; 37.5 ppm, 24 hpt",32.19 n-fold
same,PR1 gene activation OV A or B (single component),"[2]; 37.5 ppm, 48 hpt",72.31 n-fold
same,Percentage of disease control OV A or B (single component),[6]; Test 4,86%
O=S1(=O)N=C(OCc2snc(Cl)c2Cl)c2ccccc21 [Dichlobentiazox],Percentage of disease control B,[7]; [9],53%
same,Percentage of disease control OV A or B (single component),[3]; 100 ppm,0%
same,Percentage of disease control B,[3]; in vivo,0%
same,Percentage of disease control OV A or B (single component),[8]; [10],0%
"O=C(O)CCCCCCCC(=O)O [Azelaic acid, azelaic acid]",PDF1.2 gene activation OV A or B (single component),"[1]; 200 ppm, 24 hpt",331.01 n-fold
same,PDF1.2 gene activation OV A or B (single component),"[1]; 200 ppm, 48 hpt",87.56 n-fold
"Cc1ccc(NC(=O)c2snnc2C)cc1Cl [Tiadinil, tiadinil]",Percentage of disease control B,"[4]; Test 3, B alone 100 ppm",80%
same,PDF1.2 gene activation OV A or B (single component),"[1]; 45 ppm, 24 hpt",189.33 n-fold
same,Percentage of disease control OV A or B (single component),[8]; [11],0%
"N#Cc1ccccc1NC(=O)c1snc(Cl)c1Cl [Isotianil, isotianil]",Percentage of disease control B,"[4]; Test 3, B alone 100 ppm",77%
same,Percentage of disease control B,[7]; Combinations with Carrageenan,20%
same,Percentage of disease control B,[7]; [9],20%
same,Percentage of disease control B,[7]; Combinations with Laminarin,20%
same,PDF1.2 gene activation OV A or B (single component),"[1]; 30 ppm, 24 hpt",18.22 n-fold
same,PDF1.2 gene activation OV A or B (single component),"[1]; 30 ppm, 48 hpt",57.21 n-fold
same,Percentage of disease control OV A or B (single component),[8]; [11],10%
"CC(N)CC(=O)O (stereo not drawn) [Beta-Aminobutyric acid, beta-aminobutyric acid]",Percentage of disease control B,"[4]; Test 3, B alone 300 ppm",0%
same,Percentage of disease control B,[7]; [9],0%
same,PDF1.2 gene activation OV A or B (single component),"[1]; 100 ppm, 48 hpt",4.37 n-fold
same,Percentage of disease control B,[3]; in vivo,46%
same,PR1 gene activation OV A or B (single component),"[2]; 100 ppm, 24 hpt",2.53 n-fold
same,PR1 gene activation OV A or B (single component),"[2]; 100 ppm, 48 hpt",8.50 n-fold
same,Percentage of disease control OV A or B (single component),"[8]; Test 4 (spray treatment), 300 ppm",20%
Flagellin,PDF1.2 gene activation OV A or B (single component),"[1]; 2.3 ppm, 24 hpt",1.44 n-fold
same,PDF1.2 gene activation OV A or B (single component),"[1]; 2.3 ppm, 48 hpt",0.94 n-fold
same,PR1 gene activation OV A or B (single component),"[2]; 2.3 ppm, 24 hpt",2.05 n-fold
same,PR1 gene activation OV A or B (single component),"[2]; 2.3 ppm, 48 hpt",5.89 n-fold
"Cc1ncc(C[n+]2csc(CCO)c2C)c(N)n1 [Vitamin B1, vitamin B1]",PDF1.2 gene activation OV A or B (single component),"[1]; 8000 ppm, 24 hpt",231.82 n-fold
same,PDF1.2 gene activation OV A or B (single component),"[1]; 8000 ppm, 48 hpt",319.68 n-fold
same,PR1 gene activation OV A or B (single component),"[2]; 8000 ppm, 24 hpt",8.35 n-fold
C=CCOC1=NS(=O)(=O)c2ccccc21 [Probenazole],Percentage of disease control B,"[4]; Test 3, B alone 100 ppm",71%
same,Percentage of disease control B,"[4]; Test 4, B alone 100 ppm",71%
same,Percentage of disease control B,[7]; [9],7%
same,Percentage of disease control B,[7]; Combinations with Laminarin,7%
same,Percentage of disease control OV A or B (single component),[3]; 100 ppm,25%
same,Percentage of disease control B,[3]; in vivo,25%
same,PR1 gene activation OV A or B (single component),"[2]; 100 ppm, 48 hpt",102.9 n-fold and 102.90 n-fold
same,Percentage of disease control OV A or B (single component),[8]; [10],0%
same,Percentage of disease control OV A or B (single component),[6]; Test 2,45%
same,Percentage of disease control OV A or B (single component),[6]; Test 3,45%
"2-amino-3,5-dichlorobenzoic acid (3,5-dichloroanthranilic acid)",PDF1.2 gene activation OV A or B (single component),"[1]; 25 ppm, 48 hpt",5.70 n-fold
same,PR1 gene activation OV A or B (single component),"[2]; 25 ppm, 24 hpt",4.61 n-fold
same,PR1 gene activation OV A or B (single component),"[2]; 25 ppm, 48 hpt",4.14 n-fold
